Assay results from patent US9738848B2, “Polyfunctional lubricant composition” (priority 2013, dated 2017).

What was measured:
[1] = system: Larval medaka (Oryzias latipes); details: cited from earlier work
[2] = Hydrolyzability test (acid value after storage with water); type: physicochemical; details: 1 mass percent water, 60° C.
Protocol: 1 Mass percent of water was added to phosphorus compounds and the mixture was stored in a thermostat at 60° C. The compounds were evaluated for hydrolyzability by measuring an acid value at each number of days elapsed.

Rainbow trout = details: cited from earlier work

Compound | Larval medaka (Oryzias latipes) acute toxicity 96h-LC50 [1] | Hydrolyzability (acid value over days elapsed) [2] | Rainbow trout acute toxicity 96h-LC50 (Rainbow trout)
O=P(Oc1ccccc1)(Oc1ccccc1)Oc1ccccc1 [Triphenyl phosphate] | 1.3 µg/mL | high hydrolyzability | 
Tricresyl phosphate | 0.84 µg/mL |  | 
Triisopropyl phenyl phosphate | >100 µg/mL |  | 1.6 µg/mL
